From patent US8815934B2, “2-Phenyl-1-[4-(2-Aminoethoxy)-Benzyl]-Indole and estrogen formulations” (Wyeth LLC, priority 1998, dated 2014)
pIC50: −log10 of the molar value.

Assays:
[1] = system: Ishikawa cells; experiment: Ishikawa cell alkaline phosphatase assay; format: cell-based, human; conditions: for ED50 of estrogenic activity by the alkaline phosphatase method: Ishikawa cells, 48 h treatment, reference standards; for % Activation (Ishikawa alkaline phosphatase) with 1 nM 17β-estradiol: compound + 1 nM 17β-estradiol (antiestrogen test); for % Activation (Ishikawa alkaline phosphatase): compound alone, percent of response related to 1 nM 17β-estradiol
Description: Cells were treated for 48 h prior to assay. […] Sample population for at each dose was n=8. […] Plates are placed at -80° C. for a minimum of […]. Plates are thawed at 37° C. followed by the addition of 150 μL of 0.1 M Tris-HCl, pH 9.8, containing 4 mM para-nitrophenylphosphate (pNPP) to each well (final concentration, 3 mM pNPP). Absorbance and slope calculations were made using the […] Application program (Bio-Tek Instruments, Inc., Winooski, Vt.). […] The four listed in the following were used as reference standards: A description of these methods is described by Holinka, […]., Kuramoto, H. and Gurpide, E. (1986) Effects of steroid hormones and antisteroids on alkaline phosphatase activity in human endometrial cancer cells (Ishikawa Line). Cancer Research, 46:2771-2774, and by […]. and […] simple and sensitive microtiter plate estrogen bioassay based on stimulation alkaline phosphatase in Ishikawa cells; […] Endocrinology, 6:2757-2762.

[2] = target: T1, estrogen receptor (Homo sapiens (Human), UniProt P03372); experiment: 2×VIT ERE infection luciferase assay; format: cell-based; conditions: for Infection Luciferase Activity, 1 uM + 17β estradiol: 1 uM compound + 1 nM 17β-estradiol (estrogen antagonism); for Infection Luciferase Activity, 1 uM: 1 uM compound alone, percentage of activity as compared to 17β-estradiol
Description: Chinese Hamster Ovary cells (CHO) which had been stably transfected with the human estrogen receptor were maintained in DMEM+10% fetal bovine serum (FBS). 48 h prior to treatment the growth medium was replaced with DMEM lacking phenol red+10% dextran coated charcoal stripped FBS (treatment medium). Cells were plated at a density of 5000 cells/well in 96-well plates containing 200 μL of medium/well.
Reporter DNA (Promega plasmid pGL2 containing two tandem copies of the vitellogenin ERE in front of the minimal thymidine kinase promoter driving the luciferase gene) was combined with the B-galactosidase expression plasmid pCH110 (Pharmacia) and carrier DNA (pTZ18U) in the following ratio:
20 uL of this mixture was added to each well of cells and remained on the cells for 16 h. […] Each treatment condition was performed on 8 wells (n=8) which were incubated for 24 h prior to the luciferase assay.
After removing the PBS, 25 uL of Promega lysis buffer was added to each well and allowed to stand at room temperature for 15 min, followed by 15 min at −80° C. and 15 min at 37° C. 20 uL of lysate was transferred to an opaque 96 well plate for luciferase activity evaluation and the remaining lysate (5 uL) was used for the B-galactosidase activity evaluation (normalize transfection). The luciferan substrate (Promega) was added in 100 uL aliquots to each well automatically by the luminometer and the light produced (relative light units) was read 10 seconds after addition.
To the remaining 5 uL of lysate 45 uL of PBS was added. Then 50 uL of Promega B-galactosidase 2× assay buffer was added, mixed well and incubated at 37° C. for 1 hour. A plate containing a standard curve (0.1 to 1.5 milliunits in triplicate) was set up for each experimental run. The plates were analyzed on a Molecular Devices spectrophotometric plate reader at 410 nm. The optical densities for the unknown were converted to milliunits of activity by mathematical extrapolation from the standard curve.
The luciferase data was generated as relative light units (RLUs) accumulated during a 10 second measurement and automatically transferred to a JMP (SAS Inc) file where background RLUs were subtracted. The B-galactosidase values were automatically imported into the file and these values were divided into the RLUs to normalize the data. The mean and standard deviations were determined from a n=8 for each treatment. […] These techniques are described by Tzukerman, M. T., Esty, A., Santiso-Mere, D., Danielian, P., Parker, M. G., Stein, R. B., Pike, J. W. and McDonnel, D. P. (1994). Human estrogen receptor transactivational capacity was determined by both cellular and promoter context and mediated by two functionally distinct intramolecular regions (see Molecular Endocrinology, 8:21-30).

[3] = system: Immature Sprague-Dawley rats; experiment: Rat uterotrophic/antiuterotrophic bioassay; format: in vivo; conditions: immature female rats, daily ip; for Uterine wt mg 100 uG cmpd + 1uG 17β-estradiol: 100 uG compound + 1 uG 17β-estradiol; for Uterine wt mg 100 uG cmpd: 100 uG compound, wet weight
Description: The estrogenic and antiestrogenic properties of the compounds were determined in an immature rat uterotrophic assay (4 day) that (as described previously by L. J. Black and R. L. Goode, Life Sciences, 26, 1453 (1980)). Immature Sprague-Dawley rats (female, 18 days old) were tested in groups of six. […] On day 4 the animals were sacrificed by CO2 asphyxiation and their uteri were removed and stripped of excess lipid, any fluid removed and the wet weight determined. A small section of one horn was submitted for histology and the remainder used to isolate total RNA in order to evaluate complement component 3 gene expression.

[4] = target: T1, estrogen receptor; experiment: In vitro estrogen receptor binding assay; conditions: competition with [3H]17β-estradiol, cytosol of CHO cells overexpressing the estrogen receptor; for pIC50: read-out: Receptor Binding IC50's
Description: CHO cells overexpressing the estrogen receptor were grown in 150 mm^2 dishes in DMEM+10% dextran coated charcoal, stripped fetal bovine serum. The plates were washed twice with PBS and once with 10 mM Tris-HCl, pH 7.4, 1 mM EDTA. Cells were harvested by scraping the surface and then the cell suspension was placed on ice. Cells were disrupted with a hand-held motorized tissue grinder using two, 10-second bursts. […] The cytosol was then frozen and stored at −80° C. Protein concentration of the cytosol was estimated using the BCA assay with reference standard protein.
100 uG/100 uL of the receptor preparation was aliquoted per well. […] The plate was incubated at room temperature for 2.5 h. […] 200 uL of the supernatant solution was then removed for scintillation counting. Samples were counted to 2% or 10 minutes, whichever occurs first.
Counts per minute (CPM) of radioactivity were automatically converted to disintegrated per minute (DPM) by the Beckman LS 7500 Scintillation Counter using a set of quenched standards to generate a H No. for each sample.
For the generation of IC50 curves, % binding is plotted vs compound. […] For a description of these methods, see Hulme, E. C., ed. […] Receptor-Ligand Interactions: A Practical Approach. IRL Press, New York. (see especially chapter 8).

T1 sequence (P03372 whole entry): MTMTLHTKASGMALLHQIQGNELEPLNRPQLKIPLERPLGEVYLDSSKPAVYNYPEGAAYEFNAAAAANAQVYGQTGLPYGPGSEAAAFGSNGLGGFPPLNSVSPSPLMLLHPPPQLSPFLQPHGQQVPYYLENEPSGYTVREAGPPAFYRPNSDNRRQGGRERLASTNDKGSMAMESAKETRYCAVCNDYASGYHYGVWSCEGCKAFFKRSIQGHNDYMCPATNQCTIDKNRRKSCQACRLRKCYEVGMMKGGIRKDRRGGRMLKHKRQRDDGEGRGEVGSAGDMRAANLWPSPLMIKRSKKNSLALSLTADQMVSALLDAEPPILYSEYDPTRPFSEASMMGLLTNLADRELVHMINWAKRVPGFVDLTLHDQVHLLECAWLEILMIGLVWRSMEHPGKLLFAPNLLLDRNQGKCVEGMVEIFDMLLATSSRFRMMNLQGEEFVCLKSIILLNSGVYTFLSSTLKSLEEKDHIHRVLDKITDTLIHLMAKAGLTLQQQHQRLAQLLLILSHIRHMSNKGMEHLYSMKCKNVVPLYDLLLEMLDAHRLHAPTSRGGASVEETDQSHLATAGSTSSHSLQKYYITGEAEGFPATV

SMILES	Infection Luciferase Activity, 1 uM + 17β estradiol [2]	Infection Luciferase Activity, 1 uM [2]	Uterine wt mg 100 uG cmpd + 1uG 17β-estradiol [3]	Uterine wt mg 100 uG cmpd [3]	pIC50 [4]	also measured
C[C@]12CC[C@@H]3c4ccc(O)cc4CC[C@H]3[C@@H]1CCC2=O [estrone]						ED50 of estrogenic activity by the alkaline phosphatase method [1]: 0.36 nM
N#Cc1c(-c2ccc(O)cc2)n(Cc2ccc(OCCN3CCCCC3)cc2)c2ccc(O)cc12 [No. 138, 5-Hydroxy-2-(4-Hydroxy-phenyl)-1-[4-(2-piperidin-1-yl-ethoxy)-benzyl]-1H-indole-3-carbonitrile]	−1%	−2%	37.9 mg	28.4 mg		
C[C@]12CC[C@@H]3c4ccc(O)cc4CC[C@H]3[C@@H]1C[C@@H](O)[C@@H]2O [estriol]						ED50 of estrogenic activity by the alkaline phosphatase method [1]: 0.13 nM
Cc1c(-c2ccccc2)n(Cc2ccc(OCCN3CCCCC3)cc2)c2ccccc12 [No. 85, 4-{3-Methyl-1-[4-(2-piperidin-1-yl-ethoxy)-benzyl]-1H-indole}]	43%	−2%	92.4 mg	41.1 mg	6.35	
Cc1c(-c2ccc3c(c2)OCO3)n(Cc2ccc(OCCN3CCCCC3)cc2)c2ccc(O)cc12 [No. 119, 2-Benzo[1.3]dioxol-5-yl-3-methyl-1-[4-(2-piperidin-1-yl-ethoxy)-benzyl]-1H-indol-5-ol]	−1%	−1%			7.15	
Cc1c(-c2ccc(O)cc2)n(Cc2ccc(OCCN3CCCCCC3)cc2)c2ccc(O)cc12 [No. 98, 1-[4-(2-Azepan-1-yl-ethoxy)-benzyl]-2-(4-hydroxy-phenyl)-3-methyl-1H-indol-5-ol]			27.9 mg	29.4 mg		% Activation (Ishikawa alkaline phosphatase) with 1 nM 17β-estradiol [1]: 1% activity (1% with 1 nM 17β-estradiol); % Activation (Ishikawa alkaline phosphatase) [1]: 1% activity (1% with 1 nM 17β-estradiol)
Cc1c(-c2ccc(OC(=O)C(C)(C)C)cc2)n(Cc2ccc(OCCN3CCCCC3)cc2)c2ccc(OC(=O)C(C)(C)C)cc12 [No. 162, Di-pivalate ester of 2-(4-Hydroxy-phenyl)-3-methyl-1-[4-(2-piperidin-1-yl-ethoxy)-benzyl]-1H-indol-5-ol]	−13%	−14%				Receptor Binding IC50's [4]: Does not Bind
C[C@]12CC[C@@H]3c4ccc(O)cc4CC[C@H]3[C@@H]1CC[C@H]2O [17α-estradiol]						ED50 of estrogenic activity by the alkaline phosphatase method [1]: 1.42 nM
O=C(c1ccc(OCCN2CCCCC2)cc1)c1c(-c2ccc(O)cc2)sc2cc(O)ccc12 [raloxifene]						% Activation (Ishikawa alkaline phosphatase) with 1 nM 17β-estradiol [1]: 5% activity (5% with 1 nM 17β-estradiol); % Activation (Ishikawa alkaline phosphatase) [1]: 5% activity (5% with 1 nM 17β-estradiol)
Cc1c(-c2ccc(OC3CCCC3)cc2)n(Cc2ccc(OCCN3CCCCC3)cc2)c2ccc(O)cc12 [No. 122, 2-(4-Cyclopenyloxy-phenyl)-3-methyl-1-[4-(2-piperidin-1-yl-ethoxy)-benzyl]-1H-indol-5-ol]	5%	1%	38.7 mg	46.7 mg	7.10	
N#Cc1c(-c2ccc(O)cc2)n(Cc2ccc(OCCN3CCCCCC3)cc2)c2ccc(O)cc12 [No. 139, 1-[4-(2-Azepan-1-yl-ethoxy)-benzyl]-5-hydroxy-2-(4-hydroxy-phenyl)-1H-indole-3-carbonitrile]			45.0 mg	30.4 mg		
Cc1c(-c2ccc(C(F)(F)F)cc2)n(Cc2ccc(OCCN3CCCCC3)cc2)c2ccc(O)cc12 [No. 123, 3-Methyl-1-[4-(2-piperidin-1-yl-ethoxy)-benzyl]-2-(4-trifluoromethyl-phenyl)-1H-indol-5-ol]	1%	−1%	61.4 mg	39.2 mg		
Cc1c(-c2ccc(O)cc2)n(Cc2ccc(OCC[N+](C)(C)C)cc2)c2ccc(O)cc12.[I-] [No. 106, 2-(4-Hydroxy-phenyl)-3-methyl-1-[4-(2-dimethyl-1-yl-ethoxy)-benzyl]-1H-indol-5-ol methiodide]	81%	10%			7.00	
Cc1c(-c2ccc(OC(C)C)cc2)n(Cc2ccc(OCCN3CCCCC3)cc2)c2ccc(O)cc12 [No. 120, 2-(4-Isopropoxy-phenyl)-3-methyl-1-[4-(2-1-yl-ethoxy)-benzyl]-1H-indol-5-ol]	1%	−1%			7.00	
COc1cc(Cn2c(-c3ccc(O)cc3)c(C)c3cc(O)ccc32)ccc1OCCN1CCCCCC1 [No. 168, 2-(4-Hydroxy-phenyl)-1-[3-methoxy-4-(2-azepan-1-yl-ethoxy)-benzyl]-3-methyl-1H-indol-5-ol]			81.7 mg	43.2 mg		
